Laboratory results taken from ChEMBL document CHEMBL4342408, “Therapeutic potentials of plant iridoids in Alzheimer's and Parkinson's diseases: A review” (Eur J Med Chem, 2019).

How the values were obtained:
[1] = Inhibition of beta secretase (unknown origin); parameters: species or system Homo sapiens
Homo sapiens = species on record: Homo sapiens; test: Inhibition of human tau (441 residues) P301L mutant expressed in Escherichia coli BL21(DE3) assessed as reduction in aggregation at 10 uM relative to control
[2] = molecular target: Microtubule-associated protein tau (Homo sapiens) (UniProt P10636); test: Inhibition of human tau (441 residues) expressed in Escherichia coli BL21(DE3) assessed as reduction in aggregation at 10 uM relative to control
[3] = Inhibition of human tau (441 residues) P301L mutant expressed in Escherichia coli BL21(DE3) assessed as reduction in aggregation

Sequence of Microtubule-associated protein tau (Homo sapiens) (P10636 whole entry): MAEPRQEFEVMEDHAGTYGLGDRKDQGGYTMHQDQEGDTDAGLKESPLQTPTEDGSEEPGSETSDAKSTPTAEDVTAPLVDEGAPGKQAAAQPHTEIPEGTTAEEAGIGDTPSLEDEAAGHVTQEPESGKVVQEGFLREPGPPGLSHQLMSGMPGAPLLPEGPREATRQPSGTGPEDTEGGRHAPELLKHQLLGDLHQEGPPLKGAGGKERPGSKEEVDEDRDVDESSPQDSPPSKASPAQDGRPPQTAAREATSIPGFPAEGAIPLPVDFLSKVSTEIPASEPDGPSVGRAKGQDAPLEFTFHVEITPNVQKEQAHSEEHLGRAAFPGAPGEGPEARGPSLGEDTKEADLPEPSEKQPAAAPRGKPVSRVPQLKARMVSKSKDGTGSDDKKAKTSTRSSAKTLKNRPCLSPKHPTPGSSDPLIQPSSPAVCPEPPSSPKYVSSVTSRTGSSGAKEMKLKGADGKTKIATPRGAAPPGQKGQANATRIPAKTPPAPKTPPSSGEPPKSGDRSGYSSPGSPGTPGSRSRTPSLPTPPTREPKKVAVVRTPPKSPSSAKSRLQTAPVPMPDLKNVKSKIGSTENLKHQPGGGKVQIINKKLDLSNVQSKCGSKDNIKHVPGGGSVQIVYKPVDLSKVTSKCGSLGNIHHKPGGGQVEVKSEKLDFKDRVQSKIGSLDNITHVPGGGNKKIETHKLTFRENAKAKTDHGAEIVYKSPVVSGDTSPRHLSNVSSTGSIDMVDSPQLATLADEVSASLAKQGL

Row | Ki [1] [µM] | inhibition (Homo sapiens) [%] | inhibition [2] [%] | IC50 [3] [µM] | SMILES
1 | 55 | – | – | – | COC(=O)C1=CO[C@@H](O[C@@H]2O[C@H](CO)[C@@H](O)[C@H](O)[C@H]2O)[C@@H]2[C@@H](C)[C@@H](O)C[C@H]12 [LOGANIN]
2 | – | 84 | 79 | 1.3 | C/C=C1/[C@H](O)OC=C(C(=O)OC)[C@H]1CC(=O)OCCc1ccc(O)c(O)c1
